According to PubChem BioAssay (NCI):
Where “and” joins values, the source holds several entries; their conditions need not be identical. Equal values may be shown once.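 A five-concentration, 48-hour dose response in 96-well plates underlies each endpoint, interpolated linearly between surrounding concentrations. The concentration for full growth arrest is given as TGI.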

Experiments:
Assay in all cases: NCI tumour cell line growth inhibition, 48 h
MDA-N = test system: MDA-N
NCI-H460 lung = test system: NCI-H460 lung
PC-3 prostate = test system: PC-3 prostate
BT-549 breast = test system: BT-549 breast
OVCAR-5 ovarian = test system: OVCAR-5 ovarian
OVCAR-3 ovarian = test system: OVCAR-3 ovarian
MOLT-4 leukemia = test system: MOLT-4 leukemia
OVCAR-4 ovarian = test system: OVCAR-4 ovarian
SF-295 CNS = test system: SF-295 CNS
MDA-MB-435 = test system: MDA-MB-435
DU-145 prostate = test system: DU-145 prostate
K-562 leukemia = test system: K-562 leukemia
A498 renal = test system: A498 renal
786-0 renal = test system: 786-0 renal
HL-60(TB) leukemia = test system: HL-60(TB) leukemia
RXF 393 renal = test system: RXF 393 renal
SF-539 CNS = test system: SF-539 CNS
MALME-3M melanoma = test system: MALME-3M melanoma
TK-10 renal = test system: TK-10 renal

| Structure (SMILES) | TGI (MDA-N) [µM] | TGI (NCI-H460 lung) | TGI (PC-3 prostate) [µM] | TGI (BT-549 breast) | TGI (OVCAR-5 ovarian) [µM] | TGI (OVCAR-3 ovarian) [µM] | TGI (MOLT-4 leukemia) [µM] | TGI (OVCAR-4 ovarian) | TGI (SF-295 CNS) [µM] | TGI (MDA-MB-435) [µM] | TGI (DU-145 prostate) [µM] | TGI (K-562 leukemia) | TGI (A498 renal) [µM] | TGI (786-0 renal) | TGI (HL-60(TB) leukemia) [µM] | TGI (RXF 393 renal) | TGI (SF-539 CNS) [µM] | TGI (MALME-3M melanoma) | TGI (TK-10 renal) [µM] |
| --- | --- | --- | --- | --- | --- | --- | --- | --- | --- | --- | --- | --- | --- | --- | --- | --- | --- | --- | --- |
| CCN1CCN(c2ccc(Nc3ccnc4ccc5c(nnn5C)c34)cc2)CC1 | 14.4 | 11.9 µM | 17.7 | 36.3 µM | 24.2 | 18.9 | 35.1 | 48.2 µM | 22.7 | 17.9 | 18.3 | 28.2 µM | 29.5 | 15.9 µM | 25.9 | 23.4 µM | 11.1 | 23.6 µM | 45.6 |
| COC(=O)c1sc2ncc3c(c2c1N)CCCCCC3 | > 100 | > 100 µM | > 100 | > 100 µM | > 100 | > 100 | > 100 | > 100 µM | > 100 | > 100 | > 100 | > 100 µM | > 100 | > 100 µM |  | > 100 µM | > 100 | > 100 µM | > 100 |
| Oc1ccccc1/C=N/Nc1nc(N/N=C/c2ccccc2O)nc(N/N=C/c2ccccc2O)n1 | > 100 | > 100 µM | > 100 | > 100 µM | > 100 | > 100 | > 100 | > 100 µM | > 100 | > 100 | > 100 | > 100 µM | > 100 | > 100 µM | > 100 | > 100 µM | > 100 | > 100 µM | > 100 |
| O=C1c2ccccc2C(=O)[C@@]23O[C@@]12C1(Oc2cccc4cccc(c24)O1)[C@@H]1O[C@@H]1[C@@H]3O | 32 | 23.6 µM | 34.3 | 11.1 µM | 39.3 | 12.6 | 24.5 | 17.4 µM | 26 | > 59.6 | 33.2 | > 29.8 µM | > 100 | 11.6 µM | 4.89 | 10.4 µM | 9.56 | 30.3 µM | 15.9 |
| COc1c(C)c2c(c(=O)c3c(C)cccc3n2C)c2c1c(=O)c1c(C)cccc1n2C | > 10 | > 10 µM | > 10 | > 10 µM | > 10 | > 10 | > 10 | > 10 µM | > 10 | > 10 | > 10 | > 10 µM | > 10 | > 10 µM | > 10 | > 10 µM | > 10 | > 10 µM | > 10 |
| CC(C)(C)c1cc(C(C)(C)C)c(SS(=O)(=O)O)c(O)c1O | > 100 | > 100 µM | > 100 | > 100 µM | > 100 | > 100 | 0.219 | > 100 µM | > 100 | > 100 | > 100 | > 100 µM | > 100 | > 100 µM | > 100 | 97.9 µM | 37.4 | > 100 µM | > 100 |
| COc1cc(/C=C2\C[C@H]3[C@@H]4CC=C5C=C(N6CCCC6)CC[C@]5(C)[C@H]4CC[C@]3(C)C2=O)cc(OC)c1OC | 4.2 |  | 15.2 | 5.82 µM | 30.8 | 4.07 | > 28 | 22.5 µM | 7.04 | 5.83 | 12.8 | > 100 µM | 21 | > 24.2 µM | 17.8 | 4.04 µM | 12.5 | 5.61 µM | 21.4 |
| O=C1C(N2CCNCC2)=C(Cl)C(=O)c2ncccc21 | > 10 | > 10 µM | > 10 | > 10 µM | > 10 | > 10 | > 10 | > 10 µM | > 10 | > 10 | > 10 | > 10 µM |  | > 10 µM |  | > 10 µM | > 10 | > 10 µM | > 10 |
| Oc1cc(-c2ccccc2)cn2c1nc1ccccc12 | > 100 | > 100 µM | > 100 | > 100 µM | > 100 | > 100 | > 100 | > 100 µM | > 46.1 | > 100 | > 31.6 | > 100 µM | > 100 | > 79.7 µM | 9.4 | > 100 µM | > 96.6 | > 100 µM | > 100 |
| Cc1ccc(C)n1-n1c(Cc2ccccc2)n[nH]c1=O | > 100 | > 100 µM | > 100 | > 100 µM | > 100 | > 100 | > 100 | > 100 µM | > 100 | > 100 | > 100 | > 100 µM | > 100 | > 100 µM |  | > 100 µM |  | > 100 µM | > 100 |
| CC(C)=NN/C(=N\S(=O)(=O)c1ccc(C)cc1)Nc1ccc(Cl)cc1 | > 100 | > 100 µM | > 100 | > 100 µM | > 100 | > 100 | > 100 | > 100 µM | > 100 | > 100 | > 100 | > 100 µM | > 100 | > 100 µM | > 100 |  |  | > 100 µM | > 100 |
| c1cc(Sc2nc(Sc3ccncc3)nc(Sc3ccncc3)n2)ccn1 | > 100 | > 100 µM | > 100 | > 100 µM | > 100 | > 100 | > 100 | > 100 µM | > 100 | > 100 | > 100 | > 100 µM | > 100 | > 100 µM | > 100 | > 100 µM | > 100 | > 100 µM | > 100 |
| CC(=O)NC(C)(C)C1CC=C(C)CC1 (stereo unspecified) | > 100 | > 100 µM | > 100 | > 100 µM | > 100 | > 100 | > 100 | > 100 µM | > 100 | > 100 | > 100 | > 100 µM | > 100 | > 100 µM | > 100 | > 100 µM | > 100 | > 100 µM | > 100 |
| FC(F)(Sc1ccccn1)c1nc2ccccc2o1 | > 100 | > 100 µM | > 100 | > 100 µM | > 100 | > 100 | > 100 | > 100 µM | > 100 | > 100 | > 100 | > 100 µM | > 100 | > 100 µM |  | > 100 µM | > 100 | > 100 µM | > 100 |
| Cc1ccc2c(=O)c3cccc(CC(=O)O)c3[nH]c2c1C | > 100 | > 100 µM | > 100 | > 100 µM |  | > 100 | > 100 | > 100 µM | > 100 | > 100 | > 100 | > 100 µM | > 100 | > 100 µM | > 100 |  | > 100 | > 100 µM | > 100 |
| Cn1nc2ccc3nccc(N4CCN(CCO)CC4)c3c2n1 | > 100 | > 100 µM | > 100 | > 100 µM | > 100 | > 100 | > 100 | > 100 µM | > 100 | > 100 | > 100 | > 100 µM | > 100 | > 100 µM |  | > 100 µM |  | > 100 µM | > 100 |
| CC(=O)N1OC(C)CC1Nc1ccc(Br)cc1 (stereo unspecified) | > 100 | > 100 µM | > 100 | > 100 µM | > 100 | > 100 | > 100 |  | > 100 | > 100 | > 100 | > 100 µM | > 100 | > 100 µM | > 100 | > 100 µM | > 100 | > 100 µM | > 100 |
| Cc1nc2ccc(S(=O)(=O)Nc3ccccc3)cc2c(=O)n1NC(=O)CNc1ccccc1 | > 100 | > 100 µM | > 100 | > 100 µM | > 100 | > 100 | > 100 | > 100 µM | > 100 | > 100 | > 100 | > 100 µM |  | > 100 µM | > 100 |  | > 100 | > 100 µM | > 100 |
| C=CCN1C(=O)/C(=C/c2ccc(OC)cc2)NC1=S | > 100 | > 100 µM | > 100 | > 100 µM | > 100 | > 100 | 25.6 | > 100 µM | > 100 | > 100 | > 100 | > 100 µM | > 100 | > 100 µM | 3.81 | > 100 µM | > 100 |  | > 100 |
| COC1CC(OC2C(C)OC(OC3C(C)OC(OC4C(O)CC(O[C@H]5CC[C@@]6(C)C(=CC[C@]7(O)[C@@H]6C[C@@H](OC(=O)/C=C/c6ccccc6)[C@@]6(C)[C@]7(O)CC[C@@]6(O)C(C)=O)C5)OC4C)CC3OC)CC2OC)OC(C)C1O (stereo partly specified) | > 6.25 |  | > 6.25 | > 6.25 µM | > 6.25 | > 6.25 | > 6.25 | > 6.25 µM | > 6.25 | > 6.25 | > 6.25 | > 6.25 µM |  | > 6.25 µM | > 6.25 |  | > 6.25 | > 6.25 µM | > 6.25 |
| Cc1c(C)c2c(c(N)c1C#N)C(=O)N(Nc1ccccc1)C2=O | > 100 | > 100 µM | > 100 | > 100 µM | > 100 | > 100 | > 100 | > 100 µM | > 100 | > 100 | > 100 | > 100 µM |  | > 100 µM | > 100 | 47.1 µM | > 100 | > 100 µM | > 100 |
| Nc1nc(N)c(NC(=O)CCCO)c(=O)[nH]1 | > 100 | > 100 µM | > 100 | > 100 µM | > 100 | > 100 | > 100 | > 100 µM | > 100 | > 100 | > 100 | > 100 µM | > 100 | > 100 µM |  | > 100 µM | > 100 | > 100 µM | > 100 |
| O=C(COc1ccc(OCC(=O)N2C(=O)CSC2=Nc2ccccc2)cc1)N1C(=O)CSC1=Nc1ccccc1 | 79.7 | > 100 µM | > 100 | > 100 µM | 91.9 |  | > 100 | > 100 µM | > 100 | > 100 | > 100 | > 100 µM | > 100 | 63.2 µM |  | > 100 µM |  | 86.2 µM | > 100 |
| CC(=O)OCC(OC(C)=O)C(OC(C)=O)C(OC(C)=O)C(C=NN(C(C)=O)S(=O)(=O)c1ccc(/C=C2\NC(=O)N(C)C2=O)cc1)OC(C)=O (stereo unspecified) | > 100 | 50.3 µM and 56.5 µM | > 100 | 49.4 µM and > 100 µM | > 100 | > 100 | 45.6 | 95.7 µM and > 100 µM | > 100 | > 100 | > 100 | > 100 µM and 57.1 µM | > 100 | 80 µM and 68.9 µM |  | 34.4 µM and 52.1 µM | 56.5 | 37.5 µM and 52.1 µM | 40.4 |
| O=C(O)CN1CCN2CCOCCOCCN(CC1)CCN(CC(=O)O)CC2 | > 100 | > 100 µM | > 100 | > 100 µM | > 100 | > 100 |  | > 100 µM | > 100 | > 100 | > 100 | > 100 µM | > 100 | > 100 µM |  |  | > 100 | > 100 µM | > 100 |
